Results: patent US9539300B2, “Modulating disease through genetic engineering of plants” (The Regents of the University of California, priority 2012, dated 2017)
Entries after “also recorded” stand apart in the source; their conditions may differ. Where two headings read alike, the source gives them in different places. Square brackets hold non-standard residues; d marks the D form. Ends that are not written are not given here.

Legend:
[1] = tested on: mouse model of ovarian cancer; settings: cited from earlier work
[2] = tested on: human artery wall cells; settings: cited from earlier work; for inhibition of LDL-induced MCP-1 production by cultured human artery wall cells: Datta et al. (2001); for inhibiting monocyte chemotactic activity production by human artery wall cells exposed to human LDL: FIG. 1, adapted from Datta et al. (2001)
[3] = tested on: mice; assay: 4F peptide without end groups in mice; type: in vivo
From the text: The 4F peptide (Ac-D-W-F-K-A-F-Y-D-K-V-A-E-K-F-K-E-A-F-NH2, (SEQ ID NO:1)) has end blocking groups (Ac— and —NH2) that stabilize the class A amphipathic helix and dramatically increase efficacy (Venkatachalapathi et al. (1993) Proteins Structure Function Genet. 15: 349-359; Yancey et al. (1995) Biochemistry. 34: 7955-7965; Datta et al. (2001) J. Lipid Res. 42: 1096-1104; Anantharamaiah et al. (2007) J. Lipid Res., 48: 1915-1923). […] The required end (protecting) groups for 4F and for a number of other apoA-I mimetic peptides (Navab et al. (2010) Arterioscler. Thromb. Vasc. Biol. 30: 164-168) can only be added by chemical synthesis; living organisms cannot be engineered to make a molecule containing these end groups. Thus, the production of peptide for clinical use at these doses would not be practical because of the cost of producing this amount of peptide by solid phase synthesis.
Unfortunately, producing sufficient peptide to make therapy in humans practical was not likely because the 4F peptide requires end blocking groups that can only be added through chemical synthesis. […] This led us to seek alternative peptides synthesized from all L-amino acids that might be effective without end blocking groups.

[4] = tested on: apoE−/− mice; settings: cited from earlier work
[5] = in vivo; cited from earlier work
[6] = tested on: apolipoprotein (apo)E null mice; settings: cited from earlier work
[7] = tested on: LDLR−/− mice; settings: cited from earlier work
[8] = tested on: apoE−/− mice made diabetic; settings: oral administration; cited from earlier work
[9] = tested on: enzymes involved in the formation of LPA; assay: Microarray of gene expression in the small intestine; type: in vivo, mice; settings: Western Diet or chow, D-4F in drinking water
Method: To explore the mechanism of action, a microarray experiment to determine gene expression levels in the small intestine from mice fed the Western Diet or a chow diet and given or not given D-4F in their drinking water was performed. It was previously shown that D-4F administration reduces LPA levels similar to transgenic 6F tomatoes.

[10] = tested on: LDL-induced monocyte chemoattractant protein-1 (MCP-1) production by cultured human artery wall cells; settings: cited from earlier work
[11] = tested on: cholesterol-fed rabbits; settings: 10 mg/kg/day; cited from earlier work
[12] = tested on: LDLR−/− mice; settings: cited from earlier work; for intact peptide in plasma after oral administration: mouse, in vivo; for inflammatory properties of HDL and LDL in a cell-based assay: single dose 5 mg/kg by stomach tube, four hours, 5 mg/kg
[13] = tested on: apoE−/− mice; settings: cited from earlier work; remark: listed apart in the source
[14] = Identification and quantification of 6F in small intestine and plasma; type: in vivo, mice
Method: Female LDLR−/− mice 8-9 months of age (n=6) were fasted overnight and fed WD with transgenic 6F lyophilized tomato powder added to WD to provide 900 μg of 6F in 2 grams of diet. Over a period of 30-90 minutes, each mouse ate all of the 2 grams of diet. Approximately 2 hours after finishing the food the mice were bled and the small intestine was obtained (including contents), homogenized in acetonitrile:water (1:1), chromatographed by HPLC and subjected to SDS PAGE as described in Materials and Methods of Example 3. Plasma was lyophilized and resuspended in acetonitrile:water (1:1), chromatographed by HPLC and subjected to SDS PAGE as described in Materials and Methods of Example 3. […] The lanes were scanned for quantification as described in Materials and Methods of Example 3.
For analysis of the small intestine, 200 mg of small intestine (including contents) were homogenized in 10 mL of acetonitrile:water (1:1) and the homogenates were lyophilized and re-suspended in 400 μL of acetonitrile:water (1:1). […] Samples were run on HPLC using a C-18 Reverse Phase analytical column and a gradient solvent system of acetonitrile: water (30% to 80% in 20 min) in the presence of 0.1% TFA and monitored at 280 nm. […]
The data presented above indicate that the peptide in the transgenic 6F tomatoes is acting in the small intestine. […] No 6F peptide was detected in the plasma of any of the six mice. […]

[15] = tested on: mice; settings: mouse, in vivo; cited from earlier work
[16] = doses of 4.5 and 45 mg/kg, oral or SQ

Ac-D-W-F-K-A-F-Y-D-K-V-A-E-K-F-K-E-A-F-NH2 (Ac-DWFKAFYDKVAEKFKEAF-NH2) [4F]
number of tumor nodules ([1]; mouse, in vivo): reduction
tumor volume ([1]; mouse, in vivo): significant reduction
inhibition of LDL-induced MCP-1 production by cultured human artery wall cells [2]: highly effective
inhibiting monocyte chemotactic activity production by human artery wall cells exposed to human LDL [2]: indistinguishable
fold less effective in vivo in the absence of the end groups ([3]; mice, without Ac- and -NH2 end groups, unpublished studies): 25,000 fold
plasma levels of free oxidized fatty acids (5-HETE, 15-HETE, 9-HODE, 13-HODE) ([4]; after administration of the 4F peptide): significantly decreased
esterified oxidized fatty acid levels ([4]; mouse, in vivo): unchanged
plasma levels of 20-HETE ([4]; mouse, in vivo): did not decrease

Ac-D-W-F-K-A-F-Y-D-K-V-A-E-K-F-K-E-A-F-NH2 [D-4F] (Ac-[dD][dW][dF][dK][dA][dF][dY][dD][dK][dV][dA][dE][dK][dF][dK][dE][dA][dF]-NH2)
clearance from tissues, particularly liver and kidney [5]: delayed clearance
reduction of aortic atherosclerosis ([6]; 45 mg/kg/day, Western diet, orally or SQ): ~50%
plasma levels of SAA ([6]; 45 mg/kg/day, Western diet): significantly reduced
plasma levels of lysophosphatidic acid ([6]; 45 mg/kg/day, Western diet): significantly reduced
HDL inflammatory index ([6]; doses of 0.15 or 0.45 mg/kg): did not
plasma serum amyloid A (SAA) levels ([6]; doses of 0.15 or 0.45 mg/kg): did not
HDL inflammatory index [6, 16]: significantly reduced
plasma serum amyloid A (SAA) levels [6, 16]: significantly reduced
changes in SAA, triglycerides, HDL-cholesterol and paroxonase activity induced by feeding 15-HETE in chow ([7]; SQ D-4F, chow without WD): significantly ameliorated
HDL-cholesterol ([7]; SQ or oral): increased
plasma SAA levels ([7]; SQ or oral): reduced
plasma triglyceride levels ([7]; SQ or oral): reduced
levels of 20-HETE ([7]; SQ or orally): unchanged
levels of free metabolites of arachidonic and linoleic acids in intestine, liver and hepatic bile ([7]; SQ or orally): significantly reduced
aortic atherosclerosis [8]: significantly decreased
hepatic content of free arachidonic acid and free oxidized fatty acids [8]: significantly decreased
other plasma lipid or lipoprotein levels [8]: without affecting
expression of enzymes involved in the formation of LPA [9]: none of the enzymes involved in the formation of LPA changed their expression significantly
HDL inflammatory index (HII) ([10]; oral doses of 0.43 and 1.43 mg/kg): not effective
HDL inflammatory index (HII) ([10]; oral doses of 4.3 and 7.14 mg/kg): significantly improved
efficacy of L-4F and D-4F by injection [11]: identical
intact peptide in plasma after oral administration [12]: intact peptide identified
inflammatory properties of HDL and LDL in a cell-based assay [12]: dramatically and significantly improved

Ac-D-W-F-K-A-F-Y-D-K-V-A-E-K-F-K-E-A-F-NH2 [L-4F] (Ac-DWFKAFYDKVAEKFKEAF-NH2)
LPA levels ([1]; L-4F containing blocking groups, b323: in mouse chow, 100 mg/kg/day): significantly reduced; also recorded: significantly decreased
tumor burden ([1]; in mouse chow, 100 mg/kg/day): significantly decreased
clearance from tissues, particularly liver and kidney [5]: this was not the case
HDL inflammatory index (HII) ([10]; 0.042-1.43 mg/kg IV or SQ): no improvement
aortic lesions ([13]; L-4F administered with niclosamide): induced lesion regression
aortic atherosclerosis ([13]; in chow 10 mg/kg/day for six months with low dose statin in drinking water): did not significantly change
efficacy of L-4F and D-4F by injection [11]: identical
intact peptide in plasma after oral administration [12]: virtually no intact peptide
inflammatory properties of HDL and LDL in a cell-based assay [12]: not

DWFKAFYDKFFEKFKEFF [7F, apoA-I mimetic peptide]
inhibition of LDL-induced MCP-1 production by cultured human artery wall cells [2]: did not

DWFKAFYDKVAEKFKEAF [4F peptide without end blocking groups, 4F peptide lacking the Ac- and -NH2 end groups]
activity of the peptide without end blocking groups ([3]; mouse models, data not shown): dramatically reduced

DWLKAFYDKFFEKFKEFF [6F, D-W-L-K-A-F-Y-D-K-F-F-E-K-F-K-E-F-F]
6F peptide in the plasma (not detected; lower limit of detection) ([14]; ~2 hours after eating 900 μg of 6F in transgenic 6F tomato powder): < 100 ng/mL
intact 6F peptide in the small intestine (Mean±SD) ([14]; ~2 hours after eating 900 μg of 6F in transgenic 6F tomato powder in 2 grams of WD, n=6): 15.6±7.4 μg 6F per 200 mg small intestine

DWLKAFYDKVAEKLKEAF [2F, apoA-I mimetic peptide with phenylalanine at positions 6 and 18]
diet induced atherosclerosis in mice [15]: failed to decrease
inhibition of LDL-induced MCP-1 production by cultured human artery wall cells [2]: not very effective

DWLKAFYDKVFEKFKEFF [5F, apoA-I mimetic peptide]
diet induced atherosclerosis in mice [15]: inhibiting atherosclerosis
tumor angiogenesis in mice [15]: inhibiting tumor angiogenesis
inhibition of LDL-induced MCP-1 production by cultured human artery wall cells [2]: able to efficiently inhibit
inhibiting monocyte chemotactic activity production by human artery wall cells exposed to human LDL [2]: indistinguishable
